Reference: article PMC3692405, “Disease-associated mutations in CNGB3 promote cytotoxicity in photoreceptor-derived cells” (Molecular Vision, 2013)
Where two headings read alike, the source gives them in different places.

Target: T1, CNGA3 plus CNGB3-F525N channels (Homo sapiens, UniProt Q16281+Q9NQW8, F525N)
T1 construct: expressed in transfected cells; host or cells: Xenopus laevis oocytes injected with cRNA transcribed from pGEMHE constructs
T1 sequence (Q16281 1-694): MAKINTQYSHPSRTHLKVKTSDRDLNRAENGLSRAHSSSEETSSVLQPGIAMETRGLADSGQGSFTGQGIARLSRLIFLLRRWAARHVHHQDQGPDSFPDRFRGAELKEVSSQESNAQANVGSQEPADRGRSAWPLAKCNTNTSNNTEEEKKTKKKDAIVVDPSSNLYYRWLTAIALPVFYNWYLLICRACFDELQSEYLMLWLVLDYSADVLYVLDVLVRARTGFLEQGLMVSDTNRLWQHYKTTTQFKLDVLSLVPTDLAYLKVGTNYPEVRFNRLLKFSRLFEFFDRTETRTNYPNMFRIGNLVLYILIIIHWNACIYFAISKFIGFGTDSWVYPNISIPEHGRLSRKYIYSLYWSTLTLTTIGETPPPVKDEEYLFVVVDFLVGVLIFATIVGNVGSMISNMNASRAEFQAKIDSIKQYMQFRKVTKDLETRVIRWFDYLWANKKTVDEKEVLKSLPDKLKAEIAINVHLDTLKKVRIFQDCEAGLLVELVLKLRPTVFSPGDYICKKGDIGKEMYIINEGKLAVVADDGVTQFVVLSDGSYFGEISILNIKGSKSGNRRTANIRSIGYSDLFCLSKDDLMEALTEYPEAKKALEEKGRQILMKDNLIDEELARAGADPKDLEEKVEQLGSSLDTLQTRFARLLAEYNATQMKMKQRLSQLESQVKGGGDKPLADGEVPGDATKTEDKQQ
T1 sequence (Q9NQW8 1-809 F525N): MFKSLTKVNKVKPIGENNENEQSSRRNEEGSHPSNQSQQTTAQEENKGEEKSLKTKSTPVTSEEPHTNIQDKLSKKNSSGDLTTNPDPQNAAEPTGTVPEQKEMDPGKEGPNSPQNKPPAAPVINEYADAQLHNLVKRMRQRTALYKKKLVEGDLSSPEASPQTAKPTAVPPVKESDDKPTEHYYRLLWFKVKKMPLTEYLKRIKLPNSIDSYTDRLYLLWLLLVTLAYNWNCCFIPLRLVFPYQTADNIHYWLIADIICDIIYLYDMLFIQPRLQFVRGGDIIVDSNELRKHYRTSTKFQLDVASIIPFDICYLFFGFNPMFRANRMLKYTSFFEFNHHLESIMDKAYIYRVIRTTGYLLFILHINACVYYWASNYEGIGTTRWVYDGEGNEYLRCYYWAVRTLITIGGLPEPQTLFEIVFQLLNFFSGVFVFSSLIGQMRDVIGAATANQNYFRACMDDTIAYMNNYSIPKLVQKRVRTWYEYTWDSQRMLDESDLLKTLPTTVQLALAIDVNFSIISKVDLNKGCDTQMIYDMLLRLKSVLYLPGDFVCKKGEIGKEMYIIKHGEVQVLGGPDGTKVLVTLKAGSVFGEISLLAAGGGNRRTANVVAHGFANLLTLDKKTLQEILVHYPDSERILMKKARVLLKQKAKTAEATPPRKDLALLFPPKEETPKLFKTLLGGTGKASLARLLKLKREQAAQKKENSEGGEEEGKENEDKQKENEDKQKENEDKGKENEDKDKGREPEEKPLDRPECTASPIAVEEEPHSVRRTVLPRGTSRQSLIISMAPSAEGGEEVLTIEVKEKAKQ
Assay: Inside-out patch-clamp recording of channels expressed in Xenopus oocytes (CNGB3 F525N)
Format: biochemical
Description: For heterologous expression in Xenopus laevis oocytes, identical amounts of cDNA were linearized using SphI or NheI, and capped cRNA was transcribed in vitro using the T-7 RNA polymerase mMESSAGE mMACHINE® kit (Ambion, Austin, TX). cRNA concentrations and relative amounts were determined by denaturing gel electrophoresis and KODAK 1D image analysis software (Rochester, NY), as well as by spectrophotometry. […] Oocytes were incubated in ND96 (96 mM NaCl, 2 mM KCl, 1.8 mM CaCl2, 1 mM MgCl2, and 5 mM HEPES, pH 7.6, supplemented with 10 μg/ml gentamycin).
Two to seven days after microinjection of cRNA, patch-clamp experiments were performed using the inside-out configuration with an Axopatch 200B amplifier (Axon Instruments, Foster City, CA). Recordings were made at 20–23 °C. Data were acquired using Pulse software (HEKA Elektronik, Lambrecht, Germany). Current traces were elicited by voltage steps from a holding potential of 0 mV to +80 mV, then to −80 mV and back to 0 mV. Initial pipette resistances were 0.4–0.8 megaohms. Intracellular and extracellular solutions contained 130 mM NaCl, 0.2 mM EDTA, and 3 mM HEPES (pH 7.2). Intracellular solutions were exchanged using an RSC-160 rapid solution changer (Molecular Kinetics, Indianapolis, IN). Currents in the absence of cyclic nucleotides were subtracted. For channel activation by CPT-cGMP or CPT-cAMP, dose–response data were fitted with the Hill equation, I/Imax=([cNMP]^h/(K1/2^h + [cNMP]^h)), where I is the current amplitude at +80 mV, Imax is the maximum current elicited by saturating concentration of ligand, [cNMP] is the ligand concentration, K1/2 is the apparent ligand affinity, and h is the Hill slope. We measured sensitivity to block by L-cis-diltiazem (RBI, Natick, MA) applied to the intracellular face of the patch in the presence of 0.1 μM CPT-cGMP. Data were fit with a modified Hill equation in the form I blocker/I=(K1/2^h/(K1/2^h + [blocker]^h)). Data were analyzed using Igor (Wavemetrics, Lake Oswego, OR), SigmaPlot, and SigmaStat (Systat Software Inc., San Jose, CA). All values are reported as the mean±standard error of the mean of n experiments unless otherwise indicated. Statistical significance was determined using a Student t test or Mann–Whitney rank sum test, and a p value of <0.05 was considered significant.

Row | SMILES | relative agonist efficacy Imax, CPT-cAMP/Imax, CPT-cGMP (+80 mV, CPT-cAMP 100 μM vs CPT-cGMP 4 μM, mean±SEM, n=15) | Hill slope h, CPT-cAMP activation (Hill fit, mean±SEM, n=15) | EC50 (Hill fit, mean±SEM, n=15, read-out: apparent affinity K1/2, CPT-cAMP (channel activation)) | Hill slope h, CPT-cAMP, representative dose-response (representative patch, Figure 5A) | EC50 (representative patch, Figure 5A, read-out: K1/2,CPT-cAMP, representative dose-response) | Hill slope h, CPT-cGMP activation (+80 mV, Hill fit, mean±SEM) | EC50 (+80 mV, Hill fit, mean±SEM, read-out: apparent CPT-cGMP affinity K1/2, CPT-cGMP (channel activation)) | maximum patch current density (Imax/area) (+80 mV, saturating CPT-cGMP (4 μM), mean±SEM, n=15) | Hill slope h, CPT-cGMP, representative dose-response (representative patch, Figure 1B) | EC50 (representative patch, Figure 1B, read-out: K1/2,CPT-cGMP, representative dose-response)
1 | Nc1ncnc2c1nc(Sc1ccc(Cl)cc1)n2[C@@H]1O[C@@H]2COP(=O)(O)O[C@H]2[C@H]1O [CPT-cAMP, CPT-adenosine 3′,5′-cyclic monophosphate] | 0.49±0.04 | 1.4±0.08 | 13.8 ± 1.4 µM | 1.0 | 10.8 µM | – | – | – | – | –
2 | Nc1nc2c(nc(Sc3ccc(Cl)cc3)n2[C@@H]2O[C@@H]3COP(=O)(O)O[C@H]3[C@H]2O)c(=O)[nH]1 [CPT-cGMP, 8-(4-chlorophenylthio) guanosine 3′,5′-cyclic monophosphate] | – | – | – | – | – | 1.8±0.04 | 0.0868 ± 0.0106 µM | 80.3±18.6 pA/μm^2 | 1.7 | 0.079 µM
